The source of these data is US9174992B2, “Heterobicyclic compounds” (Amgen Inc., priority 2012, dated 2015).

This assay concerns the target PDE10A (UniProt Q9Y233). The experiment in a line: PDE10 enzyme inhibition, IMAP TR-FRET assay (Example A, MPDE10A7 Enzyme Activity and Inhibition). The format is biochemical. Conditions: approximate IC50 value, Table 10. In short, it runs like this:
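Compounds were preincubated 60 min at room temperature with PDE10A enzyme or tissue homogenate, then fluorescein-labeled cAMP or cGMP was added for 90 min. After stopping with IMAP binding reagents, TR-FRET was read and IC50s were fitted with a four-parameter logistic equation.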
(TR-FRET usually uses a lanthanide donor and a delayed reading to cut background.)

SMILES strings stand for the structures.

What is called IC50 is the point on the concentration scale where inhibition reaches its midpoint. In turn, `COc1nc2cccnc2n1C1CCC(Nc2nc3ccccc3[nH]2)CC1` (stereo not drawn) [Example 134, N-(4-(2-methoxy-3H-imidazo[4,5-b]pyridin-3-yl)cyclohexyl)-1H-benzimidazol-2-amine] yielded a concentration for half-maximal inhibition (IC50) of 1.04 nM.

The compound `c1cnc2c(c1)nc(C1CC1)n2[C@H]1C[C@H](Nc2nc3ncccc3s2)C1` [Example 27, N-(Trans-3-(2-cyclopropyl-3H-imidazo[4,5-b]pyridin-3-yl)cyclobutyl)thiazolo[4,5-b]pyridin-2-amine] registered an IC50 of 11 nM.

In turn, `CNC(=O)c1ccc(N[C@H]2C[C@H](N3C(=O)C(C)(C)c4cccnc43)C2)nc1` [Example 29, 6-((trans-3-(3,3-dimethyl-2-oxo-2,3-dihydro-1H-pyrrolo[2,3-b]pyridin-1-yl)cyclobutyl)amino)-N-methylnicotinamide] had an IC50 of 76.7 nM.

In turn, `c1cnc2c(c1)nc(C1CC1)n2[C@H]1C[C@H](Nc2ccc3ccncc3n2)C1` [Example 18, N-(Trans-3-(2-cyclopropyl-3H-imidazo[4,5-b]pyridin-3-yl)cyclobutyl)-1,7-naphthyridin-2-amine] gave an IC50 of 28.4 nM.

In the case of `Nc1nn([C@H]2C[C@H](Nc3nc4ccccc4s3)C2)c2ncccc12` [Example 113, N-(trans-3-(3-amino-1H-pyrazolo[3,4-b]pyridin-1-yl)cyclobutyl)benzo[d]thiazol-2-amine], inhibition was half-maximal at 77.1 nM (IC50).

In the case of `CC1(C)C(=O)N([C@H]2C[C@H](Nc3ccc(Cl)cn3)C2)c2ncccc21` [Example 42, 1-(Trans-3-((5-chloropyridin-2-yl)amino)cyclobutyl)-3,3-dimethyl-1H-pyrrolo[2,3-b]pyridin-2(3H)-one], the IC50 came out at 0.856 nM.

In turn, `Cc1ccc(N[C@H]2CC[C@H](N3C(=O)C(C)(C)c4nccnc43)CC2)nc1` [Example 75, 7,7-Dimethyl-5-(trans-4-((5-methylpyridin-2-yl)amino)cyclohexyl)-5H-pyrrolo[2,3-b]pyrazin-6(7H)-one] came in with an IC50 of 5.02 nM.

Consider `c1ccc2sc(N[C@H]3C[C@H](n4c(C5CC5)nc5cccnc54)C3)nc2c1` [Example 2, N-(trans-3-(2-cyclopropyl-3H-imidazo[4,5-b]pyridin-3-yl)cyclobutyl)benzo[d]thiazol-2-amine], for which it took 0.373 nM to reach half-maximal inhibition (IC50).

`CC1(C)C(=O)N([C@H]2C[C@H](Nc3ccc(Br)cn3)C2)c2nccnc21` [Example 158, 5-(trans-3-((5-bromopyridin-2-yl)amino)cyclobuty1)-7,7-dimethyl-5H-pyrrolo[2,3-b]pyrazin-6(7 H)-one] had an IC50 of 0.189 nM.

Regarding `Cn1c(=O)n([C@H]2C[C@H](Nc3nc4cc(F)ccc4s3)C2)c2ncccc21` [Example 143, 3-(trans-3-((5-fluorobenzo[d]thiazol-2-yl)amino)cyclobutyl)-1-methyl-1H-imidazo[4,5-b]pyridin-2(3H)-one], the IC50 is 0.947 nM.

For `CC1(C)C(=O)N(C2CCN(c3nc4ccc(F)cc4s3)CC2)c2ncccc21` [Example 191, 1-(1-(6-fluorobenzo[d]thiazol-2-yl)piperidin-4-yl)-3,3-dimethyl-1H-pyrrolo[2,3-b]pyridin-2(3 H)-one], the IC50 was determined as 3.46 nM.

The compound `COc1nc2cccnc2n1C1CCC(Nc2nc3ccccc3[nH]2)CC1` (stereo not drawn) [Example 133, N-(4-(2-methoxy-3H-imidazo[4,5-b]pyridin-3-yl)cyclohexyl)-1H-benzo[d]imidazol-2-amine] returned an IC50 of 0.505 nM.

As to `CC1(C)C(=O)N([C@H]2C[C@H](Nc3nc4cccnc4s3)C2)c2nccnc21` [Example 173, 7,7-dimethyl-5-(trans-3-(thiazolo[5,4-b]pyridin-2-ylamino)cyclobutyl)-5H-pyrrolo[2,3-b]pyrazin-6(7H)-one], the IC50 was 1.49 nM.

In the case of `CC(C)c1cnc(N[C@H]2C[C@H](N3C(=O)C(C)(C)c4cccnc43)C2)nc1` [Example 82, 1-(trans-3-((5-isopropylpyrimidin-2-yl)amino)cyclobutyl)-3,3-dimethyl-1H-pyrrolo[2,3-b]pyridin-2(3H)-one], half-maximal inhibition (IC50) required 2.83 nM.

`O=C1N([C@H]2C[C@H](Nc3nc4ccccc4s3)C2)c2ncccc2C12CC2` [Example 31, 1′-(Trans-3-(benzo[d]thiazol-2-ylamino)cyclobutyl)spiro[cyclopropane-1,3′-pyrrolo[2,3-b]pyridin]-2′(1′H)-one] had an IC50 of 0.0151 nM.

Compound `CC1(C)C(=O)Nc2nc([C@H]3C[C@H](Nc4ccc5ccc(F)cc5n4)C3)cnc21` [Example 195, 3-(trans-3-((7-fluoroquinolin-2-yl)amino)cyclobutyl)-7,7-dimethyl-5H-pyrrolo[2,3-b]pyrazin-6(7 H)-one] yielded an IC50 of 0.938 nM.

`CCc1cnc(N[C@H]2C[C@H](N3C(=O)C(C)(C)c4cccnc43)C2)nc1` [Example 47, 1-(trans-3-((5-ethylpyrimidin-2-yl)amino)cyclobutyl)-3,3-dimethyl-1H-pyrrolo[2,3-b]pyridin-2(3H)-one] came in with an IC50 of 2.64 nM.

Compound `O=c1n(C2CC2)c2cc(F)cnc2n1[C@H]1C[C@H](Nc2nc3ccccc3s2)C1` [Example 87, 3-(trans-3-(benzo[d]thiazol-2-ylamino)cyclobutyl)-6-fluoro-1-cyclopropyl-1H-imidazo[4,5-b]pyridin-2(3H)-one] gave an IC50 of 0.0794 nM.

The compound `Cn1c(N[C@H]2C[C@H](N3C(=O)C(C)(C)c4nccnc43)C2)nc2ccccc21` [Example 161, 7,7-dimethyl-5-(trans-3-((1-methyl-1H-benzo[d]imidazol-2-yl)amino)cyclobutyl)-5H-pyrrolo-[2,3-b]pyrazin-6(7 H)-one] registered an IC50 of 2.73 nM.

Turning to `COc1nc2cccnc2n1[C@H]1C[C@H](Nc2cnc3ccc(Cl)cc3n2)C1` [Example 19, 7-chloro-N-(trans-3-(2-methoxy-3H-imidazo[4,5-b]pyridin-3-yl)cyclobutyl)quinoxalin-2-amine], half-maximal inhibition (IC50) was put at 35.7 nM.

With `O=c1n(C2CC2)c2nccnc2n1[C@H]1C[C@H](Nc2nc3cc(F)ccc3s2)C1` [Example 222, 1-cyclopropyl-3-(trans-3-((5-fluorobenzo[d]thiazol-2-yl)amino)cyclobutyl)-1H-imidazo[4,5-b]pyrazin-2(3 H)-one], the IC50 amounted to 7.61 nM.

For `O=C(c1cnc(N[C@H]2C[C@H](n3c(=O)n(C4CC4)c4nccnc43)C2)s1)N1CCOCC1` [Example 152, 1-cyclopropyl-3-(trans-3-((5-(morpholine-4-carbonyl)thiazol-2-yl)amino)cyclobutyl)-1H-imidazo[4,5-b]pyrazin-2(3H)-one], the IC50 came to 9040 nM.

`O=C(c1nc2ccccc2s1)N1CC(N2C(=O)C3(CC3)c3cccnc32)C1` [Example 118, 1′-(1-(benzo[d]thiazole-2-carbonyl)azetidin-3-yl)spiro[cyclopropane-1,3′-pyrrolo[2,3-b]pyridin-]-2′(1′H)-one] registered an IC50 of 1.69 nM.

As to `O=c1n(C2CC2)c2nccnc2n1[C@H]1CC[C@H](Nc2ccc3ncccc3n2)CC1` [Example 227, 1-(trans-4-((1,5-naphthyridin-2-yl)amino)cyclohexyl)-3-cyclopropyl-1H-imidazo[4,5-b]pyrazin-2(3H)-one], the IC50 stood at 1.87 nM.

The compound `CC1(C)C(=O)N([C@H]2C[C@H](Nc3ccc(-n4cccn4)cn3)C2)c2nccnc21` [Example 164, 5-(trans-3-((5-(1H-pyrazol-1-yl)pyridin-2-yl)amino)cyclobutyl)-7,7-dimethyl-5H-pyrrolo[2,3-b]pyrazin-6(7 H)-one triacetate] yielded an IC50 of 0.921 nM.

Regarding `COc1ccc2ccc(N[C@H]3C[C@H](n4c(=O)[nH]c5cccnc54)C3)nc2c1` [Example 105, 3-(trans-3-((7-methoxyquinolin-2-yl)amino)cyclobutyl)-1H-imidazo[4,5-b]pyridin-2(3H)-one], the midpoint of inhibition, the IC50, lay at 35.5 nM.

`CC1(C)C(=O)N([C@H]2CCN(c3nc4ccccc4s3)C2)c2nccnc21` [Example 141, (S)-5-(1-(benzo[d]thiazol-2-yl)pyrrolidin-3-yl)-7,7-dimethyl-5H-pyrrolo[2,3-b]pyrazin-6(7H)-one]: the IC50 stood at 295 nM.

`O=c1[nH]c2cccnc2n1[C@H]1CC[C@H](Nc2nc3ccccc3s2)CC1` [Example 104]: half-maximal inhibition (IC50) was put at 31.4 nM.

Take `CC1(C)C(=O)N([C@H]2C[C@H](Nc3ccc4ncccc4n3)C2)c2nccnc21` [Example 163, 5-(trans-3-((1,5-naphthyridin-2-yl)amino)cyclobutyl)-7,7-dimethyl-5H-pyrrolo[2,3-b]pyrazin-6(7 H)-one]: the IC50 came to 0.459 nM.

As for `FC(F)(F)c1nc2cccnc2n1[C@H]1C[C@H](Nc2ncc3ccccc3n2)C1` [Example 12, N-(Trans-3-(2-(trifluoromethyl)-3H-imidazo[4,5-b]pyridin-3-yl)cyclobutyl)quinazolin-2-amine], 6.9 nM corresponded to half-maximal inhibition (IC50).

On to `CC1(C)C(=O)N([C@H]2C[C@H](Nc3ccnc(Cl)n3)C2)c2ncccc21` [Example 72, 1-(trans-3-((2-cholropyrimidin-4-yl)amino)cyclobutyl)-3,3-dimethyl-1H-pyrrolo[2,3-b]pyridin-2(3H)-one], for which the half-maximal inhibitory concentration (IC50) stood at 352 nM.

Take `O=c1oc2cccnc2n1[C@H]1C[C@H](Nc2nc3ccccc3s2)C1` [Example 100]: the IC50 amounted to 10.3 nM.

Compound `Cn1c(=O)n([C@H]2C[C@H](Nc3nc4cc(F)ccc4s3)C2)c2ncc(F)cc21` [Example 210, 6-fluoro-3-(trans-3-((5-fluorobenzo[d]thiazol-2-yl)amino)cyclobutyl)-1-methyl-1H-imidazo[4,5-b]pyridin-2(3 H)-one] yielded an IC50 of 0.892 nM.

For the compound `CC1(C)C(=O)N([C@H]2C[C@H](Nc3ncccc3Cl)C2)c2ncccc21` [Example 57], the IC50 was found to be 11 nM.

On to `CC1(C)C(=O)N([C@H]2C[C@H](Nc3nc4ccccc4o3)C2)c2ncccc21` [Example 168, 1-(trans-3-(benzo[d]oxazol-2-ylamino)cyclobutyl)-3,3-dimethyl-1H-pyrrolo[2,3-b]pyridin-2(3 H)-one], for which the IC50 is 0.116 nM.

Compound `c1cnc2ccc(N[C@H]3C[C@H](n4c(C5CC5)nc5cccnc54)C3)nc2c1` [Example 3, N-(Trans-3-(2-cyclopropyl-3h-imidazo[4,5-b]pyridin-3-yl)cyclobutyl)-1,5-naphthyridin-2-amine] gave an IC50 of 0.622 nM.
